This note sets out measurements from US20250041624A1, “METHOD FOR ENHANCING ACTIVITY OF PHOTOSENSITIZER BY MAGNETIC FIELD” (PEKING UNIVERSITY, priority 2021, published 2025).

One test has as its system Bax/Bcl-2. The test can be described thus: Western blot of Bax/Bcl-2 in HeLa cells. Type of test: cell-based. Particulars: RB 30 μmol/L treated HeLa; light; 250 mT vs no magnetic field. The procedure:
(§1) HeLa cells (2×10^4/well) are seeded in 6-well plates and cultured for 24 hours, added with RB solution (final concentration 30 μmol/L) or PBS buffer (final concentration 0.01 mol/L), and after treating 24 hours, cells are washed 3 times with PBS buffer.
(§2) The cells are placed under a magnetic field at 0, 250 or 800 mT, simultaneously with light (561 nm, 5 mW·cm^−2) or in the dark. After 24 hours treatment, cells are washed with PBS buffer and collect by centrifugation. Protein is extracted from cells using RIPA lysis buffer (medium lysis strength). Target protein is detected with primary antibody, to identify cleaved Caspase-3 protease, Bax (BCL2-Associated X protein) and Bcl-2 (B lymphocytomatose-2 gene), respectively, with β-Actin antibody as the reference. Images are acquired by Bio-Rad ChemiDoc touch imaging system, and results are shown in FIG. 14, in which, group A is PBS buffer treated HeLa cells (light, no magnetic field); group B is RB treated HeLa cells (light, no magnetic field); group C is RB-treated Hela cells (light, 250 mT magnetic field); group D is RB-treated Hela cells (light, 800 mT magnetic field).
(§3) The change rate of protein expression is (AB−A0)/A0×100%, where AB and A0 are protein expression with and without magnetic field, respectively (obtained by ImageJ software analyzing the bands in FIG. 14).
(In general: Immunoblotting shows a protein as a band on a membrane.)

Another test relates to cleaved Caspase-3. The test can be described thus: Western blot of cleaved Caspase-3 in HeLa cells. The test is classed as cell-based. Particulars: RB 30 μmol/L treated HeLa; light; 250 mT vs no magnetic field. As for the experimental part: as §1, §2, §3
Test [1] in a line: Reaction rate of fluorescent probe SOSG with 1O2 generated by photosensitizer under light and magnetic field. The test is classed as physicochemical. Particulars: for first derivative of the I525 nm−t curve (normalized): RB and SOSG 10 μmol/L in water, 561 nm LED 5 mW·cm−2, time 0. The procedure: (1) The photosensitizer Rose Bengal (RB) (the purity >98%, available from Saen Chemical Technologies (Shanghai) Ltd. Co., branded as Energy Chemical) and singlet oxygen fluorescent probe (SOSG) are dissolved in water (SOSG available from ThermoFisher Scientific (China) Co., Ltd.). In the resulting solution, the photosensitizer and SOSG are both at a concentration of 10 μmol/L. In a magnetic field with certain strength, the solutions are exposed to a 561 nm LED lamp (light emitting diode) at a power of 5 mW·cm^−2 and tested for fluorescence spectra at 0, 15, 30, 45, 60, 90, 120 and 180 seconds of light exposure, respectively, resulting in emission intensity ([…]) versus time (t) curves. The above fluorescence spectroscopy test is performed at a magnetic field strength of 0, 10, 35, 85, 180, 300 mT, respectively (external magnetic field provided by a neodymium iron boron permanent magnet).
(2) The photosensitizer chlorin e6 (Ce6, Chlorin e6) (available from Saen Chemical Technologies (Shanghai) Ltd. Co., branded as Energy Chemical) and singlet oxygen fluorescent probe (SOSG) are dissolved in water, both with a concentration of 10 μmol/L in the resulting solutions. In a magnetic field with certain strength, the solutions are exposed to a 640 nm LED lamp (light emitting diode) at a power of 5 mW·cm^−2 and tested for fluorescence spectra at 0, 15, 30, 45, 60, 90, 120 and 180 seconds of light exposure, respectively, resulting in emission intensity ([…]) versus time (t) curves. The above fluorescence spectra are tested at a magnetic field strength of 0, 10, 30, 70, 150, 250 mT, respectively.
The external magnetic field is supplied by Neodymium Iron Boron Permanent Magnet. Fluorescence spectra are tested using Edinburg FLS980 Steady State Transient Fluorescence Spectrometer with a detector of PMT R928 and a light source of 450 W ozone-free xenon lamp with excitation wavelength of λex=488 nm.
Under irradiation conditions, photosensitizer is excited to produce singlet oxygen ^1O2, and fluorescent probe SOSG reacts with ^1O2 to give endoperoxide with green fluorescence emission characteristic, with emission wavelength of 525 nm under excitation wavelength conditions of 488 nm. The reaction has a reaction rate of r.
In the present invention, through application of light and a magnetic field, the magnetic field effects (MFEs) is quantified by mfeR, the change rate of the reaction rate r, mfeR=(rB−r0)/r0×100%, where r0 is the reaction rate at a magnetic field strength of 0 mT and rB is the reaction rate at a magnetic field strength of B mT. Where the reaction rate (r) is proportional to the slope of the tangent of a curve (first derivative of the curve) of the emission intensity (I525 nm) versus time (t). Under magnetic field strengths of 0, 10, 35, 85, 180, 300 mT and from the time of starting to illuminate and place in magnetic field (the time recorded as 0), the first derivative of the I525 nm−t curve is 1, 1.05, 1.09, 0.99, 1.12, 1.14 (normalized).

In the case of `O=C1OC2(c3cc(I)c(O)c(I)c3Oc3c2cc(I)c(O)c3I)c2c(Cl)c(Cl)c(Cl)c(Cl)c21` [RB, Rose Bengal], in the test with Bax/Bcl-2, the “change rate of Bax/Bcl-2 expression (%)” value came out at 10.6 ± 0.5%. Moreover, the “change rate of cleaved Caspase-3 expression (%)” value in the test on cleaved Caspase-3 is recorded as 34.1 ± 1.9%. The “first derivative of the I525 nm−t curve (normalized)” value in test [1] (MF 0 mT) is reported as 1; in test [1] (MF 10 mT), 1.05; in test [1] (MF 35 mT) it was 1.09; in test [1] (MF 85 mT), 0.99; in test [1] (MF 180 mT), 1.12; in test [1] (MF 300 mT), 1.14. For the same molecule, the “mfer (change rate of reaction rate r of SOSG with 1O2)” value in test [1] (peak, MF 250 mT vs 0 mT, FIG. 1) is 25%.
